Measured values as given in paper PMC12246139 (Scientific Reports, 2025).
Several values for one entry are separate records, joined by “and”; a condition that tells them apart may be missing. Equal entries are not always repeated. Where two headings read alike, the source gives them in different places.

Assays:
KRAS(G12C/H95L) [1] = biological target: T1, KRAS(G12C/H95L) (Homo sapiens, UniProt P01116, G12C/H95L); test: biochemical; details: 10 nM KRAS(G12C/H95L), 5 nM SOScat, 15 min preincubation; read-out: Nucleotide exchange IC50
Text: (§1) First, we performed a traditional nucleotide exchange assay using a single-label quenching resonance energy transfer (QRET) principle[63]–[65] and non-labeled full-length KRAS(G12C), (G12C/H95L), and (G12C/Y96D). The selection of the two double mutants was based on the observed interactions in the MD simulations (Figs. 2, 3), and the fact that acquired resistance with SII-P inhibitors is associated with these mutations, as clinically observed for sotorasib and adagrasib[66]–[68].
(§2) Nucleotide exchange inhibition was monitored in an assay with 10 nM KRAS and 5 nM SOS^cat, utilizing Eu^3+-GTP TRL-signal protection upon KRAS binding according to QRET principle. […] (d) Overview of the assay results presented in (a–c) and Figs. S17, S19–S20.
(§3) Nucleotide exchange assays using the QRET principle[63]–[65],[68] were performed in assay buffer containing 20 mM HEPES (pH 7.5) 1 mM MgCl2, 10 mM NaCl, 0.01% (v/v) Triton X-100. […] Thereafter, 6 μL of detection solution (3.5 μM MT2 and 10 nM Eu^3+-GTP) was added and reaction was initiated with 5 nM SOS^cat added in 3 μL volume. TRL-signals were monitored using Tecan Spark 20 M from Tecan Life Sciences (Männedorf, Switzerland) by using 340 and 620 nm excitation and emission wavelengths and 800 and 400 μs delay and decay time, respectively. All concentrations are informed in a final 15 μL reaction volume in white 384-well low volume plates (Corning, USA). IC50 values were obtained using standard sigmoidal fitting functions from Origin 2016 software (Origin Lab, Northampton, MA).

KRAS(G12C/Y96D) [2] = biological target: T2, KRAS(G12C/Y96D) (Homo sapiens, UniProt P01116, G12C/Y96D); test: biochemical; details: 10 nM KRAS(G12C/Y96D), 5 nM SOScat, 15 min preincubation; read-out: Nucleotide exchange IC50
Text: as §1, §2, §3

KRAS(G12C) [3] = biological target: T3, KRAS(G12C) (Homo sapiens, UniProt P01116, G12C); test: biochemical; type: binding; details: 20 nM KRAS(G12C), 1 M urea, 120 min at room temperature; read-out: Chemical stability IC50
Experimental: as §2
(§4) In these assays, no external protein (SOS^cat) is used and only KRAS and inhibitors are present. First, we conducted a chemical stability assay by utilizing the FRET-Probe technique. In this system, time dependent KRAS (20 nM) denaturation is monitored in 1 M urea solution after KRAS preincubation with varying inhibitor concentration. […] In this assay, we observed an exceptionally high stability increase with both inhibitors (Fig. 5d; Fig. S17).
(§5) FRET-Probe chemical stability assays[69] were performed in triplicates in an assay buffer containing 10 mM HEPES (pH 7.5), 10 mM NaCl, and 0.01% (v/v) Brij-30 (with or without 0.2 mM MgCl2) and destabilizing detection buffer with 10 mM HEPES (pH 7.5), 1 M urea, and 0.01% (v/v) Brij-30. […] Thereafter, 16 μL of the 1 × FRET-Probe was added in destabilizing detection buffer and TR-FRET signal was monitored multiple times during 120 min incubation (parameters as in thermal stability assay). All concentrations are informed in a final 20 μL reaction volume in white 384-well low volume plates (Corning, USA). IC50 values were obtained by blotting the signals obtained with different inhibitor concentrations at the selected time point against the inhibitor concentration and using standard sigmoidal fitting functions from Origin 2016 software.

KRAS(G12C/H95L) [4] = biological target: T1, KRAS(G12C/H95L); test: biochemical; type: binding; details: 20 nM KRAS(G12C/H95L), 1 M urea, 120 min at room temperature; read-out: Chemical stability IC50
Experimental: as §2, §4, §5

KRAS(G12C/Y96D) [5] = biological target: T2, KRAS(G12C/Y96D); test: biochemical; type: binding; details: 20 nM KRAS(G12C/Y96D), 1 M urea, 120 min at room temperature; read-out: Chemical stability IC50
Experimental: as §2, §4, §5

KRAS(WT) [6] = biological target: T4, KRAS(WT) (Homo sapiens, UniProt P01116); test: biochemical; details: 10 nM KRAS(WT), 5 nM SOScat, 15 min preincubation; read-out: Nucleotide exchange IC50
Experimental: Our results imply that both inhibitors are highly dependent on their covalent interaction to G12C for efficient and potent RAS inhibition.
as §3
with 10 nM KRAS(WT) and 5 nM SOScat, utilizing Eu3+-GTP (10 nM) TRL-signal protection upon
KRAS binding according to QRET principle.
(§6) (1 picture or pasted object on this page, not shown here)

HRAS(G12C) = HRAS(G12C) (Homo sapiens, UniProt P01112, G12C); test: biochemical; details: 10 nM HRAS(G12C), 5 nM SOScat, 15 min preincubation; read-out: Nucleotide exchange IC50
Experimental: as §2
(§7) SII-P inhibitor activities can differ among RAS isoforms (KRAS/HRAS/NRAS). These isoforms differ only in position 95 in the SII-P (Fig. S18).
as §3

NRAS(G12C) = NRAS(G12C) (Homo sapiens, UniProt P01111, G12C); test: biochemical; details: 10 nM NRAS(G12C), 5 nM SOScat, 15 min preincubation; read-out: Nucleotide exchange IC50
Experimental: as §2, §7, §3

KRAS(WT) [7] = biological target: T4, KRAS(WT); test: FRET-Probe thermal stability assay; type: binding; set-up: full-length KRAS(G12C), KRAS(G12C/H95L), KRAS(G12C/Y96D) and KRAS(WT); host or cells: E. coli
Experimental: (§8) FRET-Probe thermal stability assays[69] were conducted in triplicates in an assay buffer containing 10 mM HEPES (pH 7.5), 10 mM NaCl, 0.5 mM MgCl2, and 0.01% (v/v) Brij-30. Assay was also performed in an assay buffer without MgCl2. […] Thereafter, 8 μL of the 1 × FRET-Probe was added, and signals were monitored using step-by-step protocol by heating from 34–96 °C using 2 °C steps and heating the sample 1.5 min at each step prior measurement using 340 and 665 nm excitation and emission wavelengths and 50 and 200 μs delay and decay time, respectively. Thermal heating was performed with a PTC-100 Programmable Thermal Controller (MJ Research, Inc., Watertown, MA). All concentrations are informed in a final 20 μL reaction volume in white 96-well PCR-plate (BioRad, USA). Tm values were obtained using standard sigmoidal fitting functions from Origin 2016 software. […]
TR-FRET signals from the triplicate reactions were monitored for every 2 °C, up to 96 °C. Normalized thermal curves with or without MgCl2 (0.2 mM) are shown in A and C, and the same data is presented as TR-FRET signals in B and D, respectively.
as §6

KRAS(G12C) [8] = biological target: T3, KRAS(G12C); test: FRET-Probe thermal stability assay; type: binding
Experimental: as §4, §8
heating with the FRET-Probe. KRAS(G12C) was preincubated 15 min prior the thermal ramping, in […]
which the TR-FRET signals from the triplicate reactions were monitored for every 2 °C, up to 96 °C.
Normalized thermal curves with or without MgCl2 (0.2 mM) are shown in A and C, and the same data […]
is presented as TR-FRET signals in B and D, respectively.
as §6

KRAS(G12C) [9] = biological target: T3, KRAS(G12C); test: biochemical; details: 10 nM KRAS(G12C), 5 nM SOScat, 15 min preincubation; read-out: Nucleotide exchange IC50

Sequence of NRAS(G12C) (P01111 1-169 G12C): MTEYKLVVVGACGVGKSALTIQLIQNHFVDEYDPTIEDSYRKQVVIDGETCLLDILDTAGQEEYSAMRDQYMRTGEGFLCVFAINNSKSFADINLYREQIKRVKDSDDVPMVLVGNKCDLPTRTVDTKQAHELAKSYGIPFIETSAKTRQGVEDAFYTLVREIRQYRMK
Sequence of HRAS(G12C) (P01112 1-169 G12C): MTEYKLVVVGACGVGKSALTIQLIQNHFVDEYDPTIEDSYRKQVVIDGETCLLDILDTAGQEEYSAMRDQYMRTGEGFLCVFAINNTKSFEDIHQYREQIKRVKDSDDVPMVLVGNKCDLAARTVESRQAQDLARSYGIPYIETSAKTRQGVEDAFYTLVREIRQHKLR

ΔTm at 10 µM (KRAS(WT) [7]; 20 nM KRAS(WT), 10,000 nM inhibitor, first value (footnote f), one of the with / without Mg2+ conditions, read-out: Thermal stability ΔTm)	ΔTm at 10 µM (KRAS(WT) [7]; 20 nM KRAS(WT), 10,000 nM inhibitor, second value (footnote g), the other of the with / without Mg2+ conditions, read-out: Thermal stability ΔTm)	ΔTm at 0.05 µM (KRAS(G12C) [8]; 20 nM KRAS(G12C), 50 nM inhibitor, first value (footnote c), one of the with / without Mg2+ conditions, read-out: Thermal stability ΔTm)	ΔTm at 0.05 µM (KRAS(G12C) [8]; 20 nM KRAS(G12C), 50 nM inhibitor, second value (footnote d), the other of the with / without Mg2+ conditions, read-out: Thermal stability ΔTm)	Structure (SMILES)	IC50 (KRAS(G12C/H95L) [1])	IC50 (KRAS(G12C/Y96D) [2])	IC50 (KRAS(G12C) [3])	IC50 (KRAS(G12C/H95L) [4])	IC50 (KRAS(G12C/Y96D) [5])	IC50 (KRAS(WT) [6])	IC50 (HRAS(G12C))	IC50 (NRAS(G12C))	IC50 (KRAS(G12C) [9])	ΔTm at 10 µM (KRAS(WT) [7]; read-out: Thermal stability ΔTm, 20 nM KRAS(WT), 10,000 nM inhibitor, first value (footnote f), one of the with / without Mg2+ conditions)	ΔTm at 10 µM (KRAS(WT) [7]; read-out: Thermal stability ΔTm, 20 nM KRAS(WT), 10,000 nM inhibitor, second value (footnote g), the other of the with / without Mg2+ conditions)	ΔTm at 0.05 µM (KRAS(G12C) [8]; read-out: Thermal stability ΔTm, 20 nM KRAS(G12C), 50 nM inhibitor, first value (footnote c), one of the with / without Mg2+ conditions)	ΔTm at 0.05 µM (KRAS(G12C) [8]; read-out: Thermal stability ΔTm, 20 nM KRAS(G12C), 50 nM inhibitor, second value (footnote d), the other of the with / without Mg2+ conditions)
5.2 °C	5.5 °C	23.7 °C	32.5 °C	C=CC(=O)N1CCN(c2nc(OC[C@@H]3CCCN3C)nc3c(F)c(-c4nc(N)cc(C)c4C(F)(F)F)c(Cl)cc23)[C@@H](C)C1 [GDC-6036, divarasib]	12 ± 3 nM	229 ± 59 nM	5.9 ± 0.9 nM	15 ± 3.4 nM	106 ± 6 nM	291 ± 23 nM	32.9 ± 2.2 nM	29.8 ± 2.35 nM					
				C=CC(=O)N1CCN2C(=O)c3cc(F)c(-c4ccc(F)c5sc(N)c(C#N)c45)c(Cl)c3OCC[C@H]2C1 [LY3537982, olomorasib]	0.121 nM and 0.12 nM	2.8 ± 0.8 nM	0.368 nM and 0.37 nM	0.345 nM and 0.35 nM	1.6 ± 0.1 nM	343 ± 23 nM	0.48 ± 0.042 nM	0.16 ± 0.013 nM	0.956 ± 0.3 nM	5.1 °C	4.9 °C	20.5 °C	30.4 °C
